Measurements reported in PubChem BioAssay (NCI).
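Tested at 5 concentrations; 48 h exposure; 96-well plates; endpoints linearly interpolated, else capped at highest concentration. Definition used: TGI = concentration required for complete inhibition of growth.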

Assays:
Test in all cases: NCI tumour cell line growth inhibition, 48 h
786-0 renal = system: 786-0 renal
A498 renal = system: A498 renal
A549 NSCLC = system: A549 NSCLC
ACHN renal = system: ACHN renal
CAKI-1 renal = system: CAKI-1 renal
CCRF-CEM leukemia = system: CCRF-CEM leukemia
COLO 205 colon = system: COLO 205 colon
DLD-1 colon = system: DLD-1 colon
DMS 114 small cell lung = system: DMS 114 small cell lung
DMS 273 small cell lung = system: DMS 273 small cell lung
EKVX NSCLC = system: EKVX NSCLC
HCC-2998 colon = system: HCC-2998 colon
HCT-116 colon = system: HCT-116 colon
HCT-15 colon = system: HCT-15 colon
HL-60(TB) leukemia = system: HL-60(TB) leukemia
HOP-18 NSCLC = system: HOP-18 NSCLC
HOP-62 NSCLC = system: HOP-62 NSCLC
HOP-92 NSCLC = system: HOP-92 NSCLC
HT29 colon = system: HT29 colon
IGROV1 ovarian = system: IGROV1 ovarian
K-562 leukemia = system: K-562 leukemia
KM12 colon = system: KM12 colon
KM20L2 colon = system: KM20L2 colon
LOX IMVI melanoma = system: LOX IMVI melanoma
LXFL 529 NSCLC = system: LXFL 529 NSCLC
M14 melanoma = system: M14 melanoma
M19-MEL melanoma = system: M19-MEL melanoma
MALME-3M melanoma = system: MALME-3M melanoma
MOLT-4 leukemia = system: MOLT-4 leukemia
NCI-H226 lung = system: NCI-H226 lung
NCI-H23 lung = system: NCI-H23 lung
NCI-H460 lung = system: NCI-H460 lung
NCI-H522 lung = system: NCI-H522 lung
OVCAR-3 ovarian = system: OVCAR-3 ovarian
OVCAR-4 ovarian = system: OVCAR-4 ovarian
OVCAR-5 ovarian = system: OVCAR-5 ovarian
OVCAR-8 ovarian = system: OVCAR-8 ovarian
RPMI-8226 leukemia = system: RPMI-8226 leukemia
RXF 393 renal = system: RXF 393 renal
RXF-631 renal = system: RXF-631 renal
SF-268 CNS = system: SF-268 CNS
SF-295 CNS = system: SF-295 CNS
SF-539 CNS = system: SF-539 CNS
SK-MEL-2 melanoma = system: SK-MEL-2 melanoma
SK-MEL-28 melanoma = system: SK-MEL-28 melanoma
SK-MEL-5 melanoma = system: SK-MEL-5 melanoma
SK-OV-3 ovarian = system: SK-OV-3 ovarian
SN12C renal = system: SN12C renal
SNB-19 CNS = system: SNB-19 CNS
SNB-75 CNS = system: SNB-75 CNS
SNB-78 CNS = system: SNB-78 CNS
SR leukemia = system: SR leukemia
SW-620 colon = system: SW-620 colon
TK-10 renal = system: TK-10 renal
U251 CNS = system: U251 CNS
UACC-257 melanoma = system: UACC-257 melanoma
UACC-62 melanoma = system: UACC-62 melanoma
UO-31 renal = system: UO-31 renal
XF 498 CNS = system: XF 498 CNS

`COc1cc(C)c(C)c(OC(=O)c2c(C)c(C)c(OC)c(C)c2OC)c1C` gave a TGI (786-0 renal) of 53.4 µM, a TGI (A498 renal) of 45.9 µM and a TGI (A549 NSCLC) of 71.8 µM. The TGI (ACHN renal) was > 100 µM, the TGI (CAKI-1 renal) was 79.6 µM and the TGI (CCRF-CEM leukemia) was 62 µM. For the same compound, the TGI (COLO 205 colon) was 15.7 µM, the TGI (DLD-1 colon) was > 100 µM and the TGI (DMS 114 small cell lung) was 15.5 µM. The TGI (DMS 273 small cell lung) was 20.6 µM, the TGI (EKVX NSCLC) was 98.3 µM and the TGI (HCC-2998 colon) was 53.1 µM. It also gave a TGI (HCT-116 colon) of 39 µM, a TGI (HCT-15 colon) of 18.5 µM and a TGI (HL-60(TB) leukemia) of 32.6 µM. For the same compound, the TGI (HOP-18 NSCLC) was > 100 µM, the TGI (HOP-62 NSCLC) was > 100 µM and the TGI (HOP-92 NSCLC) was 53.9 µM. For the same compound, the TGI (HT29 colon) was 23.5 µM, the TGI (IGROV1 ovarian) was > 100 µM and the TGI (K-562 leukemia) was 44.7 µM. The TGI (KM12 colon) was 50.9 µM, the TGI (KM20L2 colon) was 19.6 µM and the TGI (LOX IMVI melanoma) was 20.9 µM. The TGI (LXFL 529 NSCLC) was > 100 µM, the TGI (M14 melanoma) was 33.9 µM and the TGI (M19-MEL melanoma) was 46.6 µM. The TGI (MALME-3M melanoma) was 65.7 µM, the TGI (MOLT-4 leukemia) was 45.2 µM and the TGI (NCI-H226 lung) was 72.1 µM. The TGI (NCI-H23 lung) was 52.9 µM, the TGI (NCI-H460 lung) was 20.4 µM and the TGI (NCI-H522 lung) was 4.71 µM. The TGI (OVCAR-3 ovarian) was 7.15 µM, the TGI (OVCAR-4 ovarian) was > 100 µM and the TGI (OVCAR-5 ovarian) was 91.4 µM. For the same compound, the TGI (OVCAR-8 ovarian) was > 100 µM, the TGI (RPMI-8226 leukemia) was 81.5 µM and the TGI (RXF 393 renal) was 39.7 µM. The TGI (RXF-631 renal) was 69.1 µM, the TGI (SF-268 CNS) was 56.2 µM and the TGI (SF-295 CNS) was 38.6 µM. For the same compound, the TGI (SF-539 CNS) was 38.6 µM, the TGI (SK-MEL-2 melanoma) was 24.8 µM and the TGI (SK-MEL-28 melanoma) was > 100 µM. For the same compound, the TGI (SK-MEL-5 melanoma) was 22.7 µM, the TGI (SK-OV-3 ovarian) was 57.2 µM and the TGI (SN12C renal) was > 100 µM. The TGI (SNB-19 CNS) was > 100 µM, the TGI (SNB-75 CNS) was 36 µM and the TGI (SNB-78 CNS) was > 100 µM. For the same compound, the TGI (SR leukemia) was 22 µM, the TGI (SW-620 colon) was 36 µM and the TGI (TK-10 renal) was > 100 µM. The TGI (U251 CNS) was 21 µM, the TGI (UACC-257 melanoma) was 78.6 µM and the TGI (UACC-62 melanoma) was > 100 µM. For the same compound, the TGI (UO-31 renal) was > 100 µM and the TGI (XF 498 CNS) was 40 µM.
